In test [1] the target is T1, swine growth hormone secretagogue receptor (Type I, clone 7-3) (Sus scrofa, UniProt Q95254). Nature of the test: 35S-Compound A binding assay, membranes of COS-7 cells transfected with clone 7-3.
A further test deals with T2, rat GHSR type Ia (Rattus norvegicus, UniProt O08725).
T2 construct: Met-1 to Val-260 with EcoRI (5′) and HpaI (3′) restriction sites appended, while a carboxyl-terminal fragment was generated from Lys-261 to Thr-364; expressed in transfected cells; host or cells: 293-AEQ17 (HEK-293 aequorin reporter line), transient lipofectamine transfection of the pSV7 ORF construct
Nature of the test: aequorin bioluminescence in transfected 293-AEQ17 reporter cells. It counts as cell-based. The conditions noted are these: rat GHSR ORF construct in 293-AEQ17 cells; three replicate samples (FIG. 26). How it is done:
Functional activity of the ORF construct was assessed by transfecting (using lipofectamine; GIBCO/BRL) […] of plasmid DNA into the aequorin expressing reporter cell line (293-AEQ17) cultured in 60 mm dishes. Following approximately 40 hours of expression the aequorin in the cells was charged for 2 hours with coelenterazine, the cells were harvested, washed and pelleted by low speed centrifugation into luminometer tubes. Functional activity was determined by measuring Compound A dependent mobilization of intracellular calcium and concomitant calcium induced aequorin bioluminescence.

Test [2] addresses T3, human growth hormone secretagogue receptor (Type I) (Homo sapiens, UniProt Q92847).
T3 construct: expressed in transfected cells; host or cells: Xenopus laevis oocytes injected with cRNA, together with aequorin and G-alpha-11 cRNA
Nature of the test: aequorin bioluminescence assay in Xenopus oocytes. The format is cell-based. The conditions noted are these: human Type I cRNA expressed in oocytes; responded to concentrations ranging from 1 mM to as low as 0.1 nM. As for the experimental part:
(§1) Xenopus laevis oocytes were isolated and injected using standard methods previously described by Arena, et al., 1991, Mol. Pharmacol. 40, 368-374, which is hereby incorporated by reference. Adult female Xenopus laevis frogs (purchased from Xenopus One, Ann Arbor, Mich.) were anesthetized with 0.17% tricaine methanesulfonate and the ovaries were surgically removed and placed in a 60 mm culture dish (Falcon) containing OR-2 medium without calcium (82.5 mM NaCl, 2 mM KCl, 2.5 mM sodium pyruvate, 1 mM MgCl2, […] penicillin, 1 mg/ml streptomycin, 5 mM HEPES, pH=7.5; ND-96 from Specialty Media, N.J.). Ovarian lobes were broken open, rinsed several times, and oocytes were released from their sacs by collagenase A digestion (Boehringer-Mannheim; 0.2% for 2-3 hours at 18° C.) in calcium-free OR-2. […]
(§2) The ABA requires injection of library pool cRNA (25 ng/egg for pool sizes of 500 to 10,000) with aequorin cRNA (2 ng/egg) supplemented with the G-protein alpha subunit Ga11 (2 ng/egg). […] Polymerase chain reaction (PCR) was utilized to generate a DNA fragment corresponding to the open reading frame (ORF) of the aequorin cDNA with an optimized Kosak translational initiation sequence (Inouye, S. et. ul., 1985, Proc. Natl. Acad. Sci. USA 82:3154-3158). […]

In test [3] the target is T1, swine growth hormone secretagogue receptor (Type I, clone 7-3). Kind of test: aequorin bioluminescence assay in Xenopus oocytes. The format is cell-based. Also on record: bioluminescence response: dose or concentration left out as unconfirmed. As for the experimental part: as §1, §2

pKd: −log10 of the molar value.

T1 sequence (Q95254 65-366): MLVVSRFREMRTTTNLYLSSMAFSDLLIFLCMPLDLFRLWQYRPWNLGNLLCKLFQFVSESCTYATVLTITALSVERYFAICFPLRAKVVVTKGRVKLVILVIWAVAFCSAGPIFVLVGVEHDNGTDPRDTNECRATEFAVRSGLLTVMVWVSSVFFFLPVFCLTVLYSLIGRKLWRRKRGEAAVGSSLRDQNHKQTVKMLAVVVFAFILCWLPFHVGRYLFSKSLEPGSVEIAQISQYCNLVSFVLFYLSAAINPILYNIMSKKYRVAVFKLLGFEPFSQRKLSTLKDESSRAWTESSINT
T3 sequence (Q92847 whole entry): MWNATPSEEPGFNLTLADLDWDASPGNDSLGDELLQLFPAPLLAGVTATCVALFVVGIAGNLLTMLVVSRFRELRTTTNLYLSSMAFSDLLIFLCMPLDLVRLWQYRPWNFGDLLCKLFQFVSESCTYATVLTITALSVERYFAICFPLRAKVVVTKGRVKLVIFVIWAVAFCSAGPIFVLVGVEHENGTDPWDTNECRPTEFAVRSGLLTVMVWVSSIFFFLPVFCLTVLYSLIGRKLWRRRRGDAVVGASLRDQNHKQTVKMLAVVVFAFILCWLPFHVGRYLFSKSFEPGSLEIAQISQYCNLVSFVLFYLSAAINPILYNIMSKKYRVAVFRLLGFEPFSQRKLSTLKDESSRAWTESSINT
T2 sequence (O08725 whole entry, the tested form may be a part): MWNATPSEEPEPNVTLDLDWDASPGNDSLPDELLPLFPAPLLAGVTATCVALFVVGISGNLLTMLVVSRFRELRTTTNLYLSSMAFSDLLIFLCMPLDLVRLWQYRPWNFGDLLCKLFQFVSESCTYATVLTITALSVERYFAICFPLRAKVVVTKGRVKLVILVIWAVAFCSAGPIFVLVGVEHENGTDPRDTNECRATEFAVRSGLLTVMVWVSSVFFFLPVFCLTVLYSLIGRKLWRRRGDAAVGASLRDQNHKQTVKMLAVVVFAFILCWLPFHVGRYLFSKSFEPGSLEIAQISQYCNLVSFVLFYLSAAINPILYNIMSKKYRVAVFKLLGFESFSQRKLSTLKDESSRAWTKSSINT

In general, pKd refers to the negative decadic logarithm of the Kd, by convention in mol/L. As for `CC(C)(N)C(=O)N[C@H](COCc1ccccc1)C(=O)N1CCC2(CC1)CN([35S](C)(=O)=O)c1ccccc12` [^35S-Compound A], the pKd in test [1] is approximately 9.70. The Bmax in test [1] (clone 7-3 expressed transiently in COS-7 cells, saturable binding) is given as approximately 80 fmol/mg protein.
`CC(C)(N)C(=O)N[C@H](COCc1ccccc1)C(=O)N1CCC2(CC1)CN(S(C)(=O)=O)c1ccccc12` [Compound A]: the “luminescent response (mobilization of intracellular calcium)” value at rat GHSR type Ia is recorded as “luminescent responses”. The “lowest Compound A concentration giving a response” value in test [2] is 0.1 nM; in test [3] (swine Type I cRNA expressed in oocytes, responded to concentrations ranging from 1 mM to as low as 0.1 nM), 0.1 nM. Further, the bioluminescence response result in test [3] (oocytes injected with cRNA of clones 7-3 and 28-18) is “positive bioluminescence response”.

The values above are taken from patent US6531314B1, “Growth hormone secretagogue receptor family” (Merck & Co., Inc., priority 1998, dated 2003).
